target: WDR5 (Homo sapiens, UniProt P61964); assay: Competition-based fluorescence polarization anisotropy assay; settings: binding to WDR5; displacement of FITC-labeled small molecule probe (analogous to Example J2 or HCH-25) or peptide probe FITC-AHx-SEEEIDVVSV; pH 6.0; Ki converted from IC50
How it was run: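 Ki values derive from displacement of either a fluorescent small-molecule probe or a FITC-peptide probe from WDR5, monitored by fluorescence polarization. Assay run at pH 6.0 in 200 mM phosphate with 300 mM NaCl, 0.5 mM TCEP and 0.1% Chaps.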

| SMILES | Ki [µM] |
| --- | --- |
| O=C(NC1CCOC1)c1cc(OC(F)(F)F)cc(NS(=O)(=O)c2cc(Br)ccc2O)c1O (stereo not shown) [Example J167, 3-((5-Bromo-2-hydroxyphenyl)sulfonamido)-2-hydroxy-N-(tetrahydrofuran-3-yl)-5-(trifluoromethoxy)benzamide] | 0.36 |
| O=C(N[C@H]1CCOC1)c1cc(OC(F)(F)F)cc(NS(=O)(=O)c2cc(Br)ccc2O)c1O [Example J168, (S)-3-((5-Bromo-2-hydroxyphenyl)sulfonamido)-2-hydroxy-N-(tetrahydrofuran-3-yl)-5-(trifluoromethoxy)benzamide] | 0.46 |
| O=C(c1cc(OC(F)(F)F)cc(NS(=O)(=O)c2cc(Br)ccc2O)c1O)N1CCC[C@H]1CO [Example J169, (S)-5-Bromo-2-hydroxy-N-(2-hydroxy-3-(2-(hydroxymethyl)pyrrolidine-1-carbonyl)-5-(trifluoromethoxy)phenyl)benzenesulfonamide] | 1.71 |
| O=C(c1cc(OC(F)(F)F)cc(NS(=O)(=O)c2cc(Br)ccc2O)c1O)N1CCC[C@@H]1CO [Example J170, (R)-5-Bromo-2-hydroxy-N-(2-hydroxy-3-(2-(hydroxymethyl)pyrrolidine-1-carbonyl)-5-(trifluoromethoxy)phenyl)benzenesulfonamide] | 2.84 |
| COC[C@@H]1CCCN1C(=O)c1cc(OC(F)(F)F)cc(NS(=O)(=O)c2cc(Br)ccc2O)c1O [Example J171, (S)-5-Bromo-2-hydroxy-N-(2-hydroxy-3-(2-(methoxymethyl)pyrrolidine-1-carbonyl)-5-(trifluoromethoxy)phenyl)benzenesulfonamide] | 1.04 |
| COC[C@H]1CCCN1C(=O)c1cc(OC(F)(F)F)cc(NS(=O)(=O)c2cc(Br)ccc2O)c1O [Example J172, (R)-5-Bromo-2-hydroxy-N-(2-hydroxy-3-(2-(methoxymethyl)pyrrolidine-1-carbonyl)-5-(trifluoromethoxy)phenyl)benzenesulfonamide] | 0.68 |
| O=C(c1cc(OC(F)(F)F)cc(NS(=O)(=O)c2cc(Br)ccc2O)c1O)N1CC[C@@H](O)C1 [Example J173, (R)-5-Bromo-2-hydroxy-N-(2-hydroxy-3-(3-hydroxypyrrolidine-1-carbonyl)-5-(trifluoromethoxy)phenyl)benzenesulfonamide] | 1.56 |
| COC1CCN(C(=O)c2cc(OC(F)(F)F)cc(NS(=O)(=O)c3cc(Br)ccc3O)c2O)C1 (stereo not shown) [Example J174, 5-Bromo-2-hydroxy-N-(2-hydroxy-3-(3-methoxypyrrolidine-1-carbonyl)-5-(trifluoromethoxy)phenyl)benzenesulfonamide] | 4.69 |
| CNC(=O)c1cc(OC(F)(F)F)cc(NS(=O)(=O)c2cc(Cl)ccc2O)c1O [Example J175, 3-((5-Chloro-2-hydroxyphenyl)sulfonamido)-2-hydroxy-N-methyl-5-(trifluoromethoxy)benzamide] | 0.81 |
| COC[C@@H]1CCCN1C(=O)c1cc(OC(F)(F)F)cc(NS(=O)(=O)c2cc(Cl)ccc2O)c1O [Example J176, (S)-5-Chloro-2-hydroxy-N-(2-hydroxy-3-(2-(methoxymethyl)pyrrolidine-1-carbonyl)-5-(trifluoromethoxy)phenyl)benzenesulfonamide] | 7.01 |
| COC[C@H]1CCCN1C(=O)c1cc(OC(F)(F)F)cc(NS(=O)(=O)c2cc(Cl)ccc2O)c1O [Example J177, (R)-5-Chloro-2-hydroxy-N-(2-hydroxy-3-(2-(methoxymethyl)pyrrolidine-1-carbonyl)-5-(trifluoromethoxy)phenyl)benzenesulfonamide] | 4.86 |
| O=C(NCC1CCCO1)c1cc(OC(F)(F)F)cc(NS(=O)(=O)c2cc(Cl)ccc2O)c1O (stereo not shown) [Example J178, 3-((5-Chloro-2-hydroxyphenyl)sulfonamido)-2-hydroxy-N-((tetrahydrofuran-2-yl)methyl)-5-(trifluoromethoxy)benzamide] | 0.7 |
| COc1ccc(Br)cc1S(=O)(=O)Nc1cc(OC(F)(F)F)cc(C(=O)NCC2CCCO2)c1O (stereo not shown) [Example J179, 3-((5-Bromo-2-methoxyphenyl)sulfonamido)-2-hydroxy-N-((tetrahydrofuran-2-yl)methyl)-5-(trifluoromethoxy)benzamide] | 0.74 |
| COC[C@@H]1CCCN1C(=O)c1cc(OC(F)(F)F)cc(NS(=O)(=O)c2cc(Br)ccc2OC)c1O [Example J180, (S)-5-Bromo-N-(2-hydroxy-3-(2-(methoxymethyl)pyrrolidine-1-carbonyl)-5-(trifluoromethoxy)phenyl)-2-methoxybenzenesulfonamide] | 4.02 |
| COC[C@H]1CCCN1C(=O)c1cc(OC(F)(F)F)cc(NS(=O)(=O)c2cc(Br)ccc2OC)c1O [Example J181, (R)-5-bromo-N-(2-hydroxy-3-(2-(methoxymethyl)pyrrolidine-1-carbonyl)-5-(trifluoromethoxy)phenyl)-2-methoxybenzenesulfonamide] | 5.88 |
| CNC(=O)c1cc(OC(F)(F)F)cc(NS(=O)(=O)c2cc(Br)cc3cccnc23)c1O [Example J182, 3-((6-Bromoquinoline)-8-sulfonamido)-2-hydroxy-N-methyl-5-(trifluoromethoxy)benzamide] | 1.06 |
| COc1ccc(Br)cc1S(=O)(=O)Nc1cc(-c2ccccc2)cc(C(=O)O)c1O [Example J183, 5-((5-Bromo-2-methoxyphenyl)sulfonamido)-4-hydroxy-[1,1′-biphenyl]-3-carboxylic acid] | 2.38 |
| Cc1c(-c2ccccc2)cc(NS(=O)(=O)c2cc(Br)ccc2O)c(O)c1C(=O)O [Example J184, 5-((5-Bromo-2-hydroxyphenyl)sulfonamido)-4-hydroxy-2-methyl-[1,1′-biphenyl]-3-carboxylic acid] | 1.62 |
| Cc1c(C2CC2)cc(NS(=O)(=O)c2cc(Br)ccc2O)c(O)c1C(=O)O [Example J185, 3-((5-Bromo-2-hydroxyphenyl)sulfonamido)-5-cyclopropyl-2-hydroxy-6-methylbenzoic acid] | 0.58 |
| COc1ccc(Br)cc1S(=O)(=O)Nc1cc(C(=O)O)cc(C2=CCOCC2)c1 [Example J193, 3-((5-Bromo-2-methoxyphenyl)sulfonamido)-5-(3,6-dihydro-2H-pyran-4-yl)benzoic acid] | 69.2 |
| COc1ccc(Br)cc1S(=O)(=O)Nc1cc(N2CCOCC2)cc(C(=O)O)c1O [Example J194, 3-((5-Bromo-2-methoxyphenyl)sulfonamido)-2-hydroxy-5-morpholinobenzoic acid] | 10.3 |
| O=C(O)c1cc(-c2ccsc2)cc(NS(=O)(=O)c2cc(Br)ccc2O)c1O [Example J195, 3-((5-Bromo-2-hydroxyphenyl)sulfonamido)-2-hydroxy-5-(thiophen-3-yl)benzoic acid] | 0.94 |
| O=C(O)c1cc(-c2cccs2)cc(NS(=O)(=O)c2cc(Br)ccc2O)c1O [Example J196, 3-((5-bromo-2-hydroxyphenyl)sulfonamido)-2-hydroxy-5-(thiophen-2-yl)benzoic acid] | 1.07 |
| Cc1ccsc1-c1cc(NS(=O)(=O)c2cc(Br)ccc2O)c(O)c(C(=O)O)c1 [Example J197, 3-((5-Bromo-2-hydroxyphenyl)sulfonamido)-2-hydroxy-5-(3-methylthiophen-2-yl)benzoic acid] | 1.93 |
| Cc1sccc1-c1cc(NS(=O)(=O)c2cc(Br)ccc2O)c(O)c(C(=O)O)c1 [Example J198, 3-((5-Bromo-2-hydroxyphenyl)sulfonamido)-2-hydroxy-5-(2-methylthiophen-3-yl)benzoic acid] | 1.1 |
